Some test systems named below: SF-539 CNS; RPMI-8226 leukemia; RXF 393 renal; DU-145 prostate; KM12 colon; COLO 205 colon; UACC-257 melanoma; U251 CNS; IGROV1 ovarian; SNB-75 CNS.
Common to all, as to assay: inhibition of tumour cell growth, NCI panel, 48 h

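Protocol summary: plate cells (96-well), add compound at 5 concentrations, incubate 48 h, interpolate endpoints linearly. GI50 marks 50% less growth. The concentration for full growth arrest is given as TGI.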

For `ClCc1cccc(Cn2cnc3c(NC45CC6CC(CC(C6)C4)C5)ncnc32)c1`, the GI50 was 16.9 µM with SF-539 CNS; 10.8 µM in the test with RPMI-8226 leukemia; 11.4 µM with RXF 393 renal; 17.3 µM with DU-145 prostate; 14.6 µM with KM12 colon; 20.5 µM in the test on COLO 205 colon. For the same molecule, the GI50 in the test on UACC-257 melanoma is 16 µM; in the test on U251 CNS, 14.8 µM; in the test on IGROV1 ovarian, 18.3 µM; in the test with SNB-75 CNS, 17.4 µM. The TGI in the test on SF-539 CNS was 32.4 µM; in the test with RPMI-8226 leukemia it was more than 53.2 µM; with RXF 393 renal, 36.7 µM; in the test on DU-145 prostate, 46.6 µM; with KM12 colon, 30.6 µM; in the test on COLO 205 colon, more than 69.4 µM. The TGI in the test with UACC-257 melanoma was 37.4 µM; in the test with U251 CNS, 30.8 µM; in the test on IGROV1 ovarian it was 45.8 µM; in the test on SNB-75 CNS it was 43.1 µM.
On to `CCOC(=O)Nc1nc2ccc(Cn3cccc3)cc2[nH]1`, for which the TGI was 7.09 µM in the test on SF-539 CNS; more than 100 µM with RPMI-8226 leukemia; more than 22.3 µM in the test on RXF 393 renal; more than 52.5 µM in the test on DU-145 prostate; more than 100 µM in the test on KM12 colon; 17.7 µM in the test on COLO 205 colon. Moreover, the TGI with UACC-257 melanoma is 26.2 µM; in the test on U251 CNS it was more than 64.8 µM; with IGROV1 ovarian it was more than 100 µM; in the test with SNB-75 CNS, 2.11 µM.
As for `Nc1ccc(N(S(=O)(=O)c2ccccc2)S(=O)(=O)c2ccccc2)c(Cl)c1`, the TGI with SF-539 CNS, in the test on RPMI-8226 leukemia, in the test with RXF 393 renal, in the test with DU-145 prostate, with KM12 colon and in the test on COLO 205 colon was more than 100 µM each time. Moreover, the TGI in the test on UACC-257 melanoma, with U251 CNS, in the test with IGROV1 ovarian and with SNB-75 CNS was more than 100 µM each time.
For the molecule `CSc1ccc(C2=NN(C(=O)c3ccc(F)cc3)C(c3ccc(F)cc3)C2)cc1` (centres undefined), the GI50 was 19.4 µM in the test on SF-539 CNS; 1.68 µM in the test with RPMI-8226 leukemia; 4.8 µM in the test on RXF 393 renal; 14.6 µM in the test with DU-145 prostate; 2.2 µM with KM12 colon; 12.3 µM with COLO 205 colon. The GI50 is 14.7 µM in the test on UACC-257 melanoma, 4.54 µM in the test with U251 CNS, 4.91 µM in the test with IGROV1 ovarian and 13.1 µM in the test with SNB-75 CNS. The TGI with SF-539 CNS stood at 38.1 µM; with RPMI-8226 leukemia, 4.2 µM; in the test on RXF 393 renal, 20 µM; with DU-145 prostate, 29.3 µM; with KM12 colon, 5.83 µM; in the test with COLO 205 colon, 25.6 µM. The TGI in the test with UACC-257 melanoma was determined as 28.3 µM; with U251 CNS it was 15.5 µM; in the test with IGROV1 ovarian it was 18.8 µM; with SNB-75 CNS it was 26 µM.
As for `Cc1cc(I)cc(CN(C)CCCN2CCSCC2)c1O`, the GI50 in the test with SF-539 CNS is 23.4 µM; in the test with RPMI-8226 leukemia it was 18.8 µM; in the test with RXF 393 renal it was 17.2 µM; in the test with DU-145 prostate, 41 µM; in the test with KM12 colon, 37.2 µM; in the test with COLO 205 colon it was 25.2 µM. Further, the GI50 with UACC-257 melanoma was 26.4 µM; with U251 CNS it was 33.9 µM; in the test on IGROV1 ovarian, 33.3 µM; with SNB-75 CNS it was 30.6 µM. The TGI in the test on SF-539 CNS was 62.7 µM; with RPMI-8226 leukemia it was 44.4 µM; in the test with RXF 393 renal it was 39 µM; in the test on DU-145 prostate, more than 100 µM; with KM12 colon it was more than 100 µM; with COLO 205 colon, 55.3 µM. The TGI in the test on UACC-257 melanoma is 92.1 µM; in the test on U251 CNS, 95.6 µM; in the test with IGROV1 ovarian it was more than 100 µM; in the test with SNB-75 CNS it was more than 100 µM.
With `O=C(O[C@H]1CN[C@H](C#Cc2cc3ncnc(Nc4ccc5c(ccn5Cc5cc(F)ccc5F)c4)c3s2)C1)N1CCOCC1`, the GI50 in the test with SF-539 CNS was 3.42 µM; with RPMI-8226 leukemia, 4.65 µM; in the test on RXF 393 renal, 0.413 µM; in the test with DU-145 prostate, 2.17 µM; with KM12 colon it was 4.57 µM; in the test on COLO 205 colon, 3.16 µM. Besides, the GI50 in the test on UACC-257 melanoma was 4.2 µM; with U251 CNS, 3.61 µM; in the test with IGROV1 ovarian, 1.33 µM; in the test on SNB-75 CNS it was 0.853 µM. Also, the TGI in the test with SF-539 CNS was 7.83 µM; in the test with RPMI-8226 leukemia it was 13.7 µM; in the test on RXF 393 renal it was 3.32 µM; with DU-145 prostate it was 5.52 µM; in the test with KM12 colon, 9.25 µM; in the test with COLO 205 colon it was 6.86 µM. Moreover, the TGI in the test on UACC-257 melanoma is 10.6 µM; in the test on U251 CNS, 8.25 µM; in the test on IGROV1 ovarian, more than 16.7 µM; with SNB-75 CNS it was 6.21 µM.
Regarding `O=c1c2cc(Cl)ccc2oc2ccc(OCCCCCN3CCCCC3)cc12`, the GI50 is 4.21 µM with SF-539 CNS; 3.6 µM in the test with RPMI-8226 leukemia; 1.86 µM with RXF 393 renal; 6.4 µM with DU-145 prostate; 2.68 µM with KM12 colon; 1 µM with COLO 205 colon. The GI50 in the test on UACC-257 melanoma was 1.3 µM; with U251 CNS it was 6.12 µM; in the test with IGROV1 ovarian it was 6.77 µM; in the test on SNB-75 CNS it was 7.44 µM. The TGI in the test on SF-539 CNS was found to be 10.6 µM; in the test on RPMI-8226 leukemia, 12.4 µM; with RXF 393 renal, 7.2 µM; in the test with DU-145 prostate it was 12.7 µM; in the test on KM12 colon it was 9 µM; in the test on COLO 205 colon, 2.29 µM. Besides, the TGI in the test on UACC-257 melanoma came to 3.2 µM; in the test on U251 CNS, 12.7 µM; with IGROV1 ovarian, 14.4 µM; in the test with SNB-75 CNS, 14 µM.
Regarding `CN[C@@H](C)C(=O)N[C@H](C(=O)N1CCC[C@H]1C(=O)N[C@H]1c2ccccc2C[C@H]1OCC#CC#CCO[C@@H]1Cc2ccccc2[C@@H]1NC(=O)[C@@H]1CCCN1C(=O)[C@@H](NC(=O)[C@H](C)NC)C1CCCCC1)C1CCCCC1`, the GI50 is less than 0.01 µM in the test on SF-539 CNS; 1.44 µM in the test on RPMI-8226 leukemia; less than 0.0371 µM in the test on RXF 393 renal; 5.35 µM with DU-145 prostate; 2.66 µM in the test with KM12 colon; 1.78 µM in the test with COLO 205 colon. Further, the GI50 was 13.5 µM in the test on UACC-257 melanoma, 1.94 µM with U251 CNS, 6.41 µM in the test with IGROV1 ovarian and less than 0.01 µM in the test with SNB-75 CNS. Further, the TGI in the test on SF-539 CNS came out at 1.28 µM; with RPMI-8226 leukemia, 3.9 µM; with DU-145 prostate, 16.5 µM; in the test on KM12 colon, 7.96 µM; in the test with COLO 205 colon, 3.55 µM; in the test on UACC-257 melanoma, 28.8 µM. For the same molecule, the figures for the TGI in the test on U251 CNS, in the test on IGROV1 ovarian and in the test on SNB-75 CNS were 4.79 µM, 21 µM and 1.16 µM, respectively.

Source of the values: PubChem BioAssay (NCI).
